Source: US20240409585A1, “MACROCYCLIC IMMUNOMODULATORS” (priority 2021, published 2024)
Bridge positions count the residues as written; N and C are the ends. Square brackets hold non-standard residues; d marks the D form. Peptide text beside a SMILES is read from it. * marks the point of attachment. ξ: configuration not given here. Phe(4-COOH) = N[C@@H](Cc1ccc(C(=O)O)cc1)C(=O)O; Phe(4-CH2NH2) = NCc1ccc(C[C@H](N)C(=O)O)cc1; Bip = N[C@@H](Cc1ccc(-c2ccccc2)cc1)C(=O)O; Phe(3-CN) = N#Cc1cccc(C[C@H](N)C(=O)O)c1; Phe(3-OMe) = COc1cccc(C[C@H](N)C(=O)O)c1; Phe(3-Me) = Cc1cccc(C[C@H](N)C(=O)O)c1; dBta = N[C@H](Cc1csc2ccccc12)C(=O)O; Val(3-OH) = CC(C)(O)[C@H](N)C(=O)O; 3Pal = N[C@@H](Cc1cccnc1)C(=O)O; 4Pal = N[C@@H](Cc1ccncc1)C(=O)O; Cha = N[C@@H](CC1CCCCC1)C(=O)O; Cit = NC(=O)NCCC[C@H](N)C(=O)O; Ile(3ξ) = CCC(C)[C@H](N)C(=O)O; Thr(3ξ) = CC(O)[C@H](N)C(=O)O; Dap(Me) = CNC[C@H](N)C(=O)O; Carboxymethyl = O=C(O)C*; NMeA = CN[C@@H](C)C(=O)O; Pra = C#CC[C@H](N)C(=O)O; Dab = NCC[C@H](N)C(=O)O; Dap = NC[C@H](N)C(=O)O

What follows are compounds tested against T1, PE-labeled human PD-L1-Ig binding to Jurkat cell line over-expressing human PD-1 (Jurkat-PD-1) (Homo sapiens, UniProt Q15116) (assay: Jurkat-PD-1 Cell Binding High-Content Screening Assay (CBA): Method 1). Settings: Jurkat-hPD-1 cells, PE-labeled PD-L1-Ig 20 nM final; read-out: Jurkat HPDL1 PD1 IC50 (uM) (Method 1).
T1 construct: expressed in transfected cells; host or cells: Jurkat
T1 sequence (Q15116 25-288): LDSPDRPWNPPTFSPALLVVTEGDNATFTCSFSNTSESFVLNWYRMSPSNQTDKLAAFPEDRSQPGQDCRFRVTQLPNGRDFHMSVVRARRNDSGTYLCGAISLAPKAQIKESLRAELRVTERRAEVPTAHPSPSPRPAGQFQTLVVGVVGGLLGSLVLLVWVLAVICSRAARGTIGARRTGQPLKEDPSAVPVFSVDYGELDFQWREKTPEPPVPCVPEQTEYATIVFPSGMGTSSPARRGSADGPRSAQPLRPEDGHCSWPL

Point of comparison: `CCC(C)[C@@H]1NC(=O)[C@H](Cc2ccc(-c3ccccc3)cc2)NC(=O)[C@H](CC(C)C)NC(=O)[C@H](Cc2c[nH]c3ccccc23)NC(=O)[C@H](CC(=O)O)NC(=O)[C@H](Cc2ccc(OCC(=O)O)cc2)NC(=O)[C@H](C(C)O)NC(=O)CSC[C@@H](C(=O)N[C@@H](CC(N)=O)C(=O)O)NC(=O)[C@H](CO)NC(=O)[C@H](C(C)C)NC(=O)[C@H](CC(C)C)NC(=O)[C@H](CCN)NC(=O)[C@@H](CC(C)C)NC(=O)[C@H](C)N(C)C1=O` (stereo partly drawn) [Compound 2220] ({CH2CO}-[Thr(3ξ)]Y(Carboxymethyl)DWL[Bip][Ile(3ξ)][NMeA][dL][Dab]LVSCN-OH; thioether N-14), IC50 0.04 µM. Against it:
- CC(C)C[C@@H]1NC(=O)[C@H](CCN)NC(=O)[C@@H](CC(C)C)NC(=O)[C@H](C)N(C)C(=O)[C@H](CCCNC(N)=O)NC(=O)[C@H](Cc2ccc(-c3ccccc3)cc2)NC(=O)[C@H](C(C)C)NC(=O)[C@H](Cc2c[nH]c3ccccc23)NC(=O)[C@H](CC(=O)O)NC(=O)[C@H](Cc2ccc(OCC(=O)O)cc2)NC(=O)[C@H](Cc2cccnc2)NC(=O)CSC[C@@H](C(=O)N[C@@H](C)C(N)=O)NC(=O)[C@H]([C@@H](C)O)NC(=O)[C@H](C(C)C)NC1=O [Compound 1331] ({CH2CO}-[3Pal]Y(Carboxymethyl)DWV[Bip][Cit][NMeA][dL][Dab]LVTCA-NH2; thioether N-14) — 4-fold lower, 0.01 µM
- C#CC[C@H](NC(=O)[C@@H](C)NC(=O)[C@@H]1CSCC(=O)N[C@@H](Cc2cnc[nH]2)C(=O)N[C@@H](Cc2ccc(OCC(=O)O)cc2)C(=O)N[C@@H](CC(=O)O)C(=O)N[C@@H](Cc2c[nH]c3ccccc23)C(=O)N[C@@H](C(C)C)C(=O)N[C@@H](Cc2ccc(-c3ccccc3)cc2)C(=O)N[C@@H](C(C)CC)C(=O)N(C)[C@@H](C)C(=O)N[C@H](CC(C)C)C(=O)N[C@@H](CCN)C(=O)N[C@@H](CC2CCCCC2)C(=O)N[C@@H](C(C)(C)O)C(=O)N[C@@H](CO)C(=O)N1)C(=O)O (stereo partly drawn) [Compound 2239] ({CH2CO}-HY(Carboxymethyl)DWV[Bip][Ile(3ξ)][NMeA][dL][Dab][Cha][Val(3-OH)]SC[dA][Pra]-OH; thioether N-14) — 2-fold lower, 0.02 µM
- CC(C)C[C@@H]1NC(=O)[C@H](CCN)NC(=O)[C@@H](CC(C)C)NC(=O)[C@H](C)N(C)C(=O)[C@H](Cc2ccccc2)NC(=O)[C@H](Cc2ccc(-c3ccccc3)cc2)NC(=O)[C@H](C(C)C)NC(=O)[C@H](Cc2c[nH]c3ccccc23)NC(=O)[C@H](CC(=O)O)NC(=O)[C@H](Cc2ccc(O)cc2)NC(=O)[C@H](CC(N)=O)NC(=O)CSC[C@@H](C(=O)N[C@@H](C)C(N)=O)NC(=O)[C@H]([C@@H](C)O)NC(=O)[C@H](C(C)C)NC1=O [Compound 1272] ({CH2CO}-NYDWV[Bip]F[NMeA][dL][Dab]LVTCA-NH2; thioether N-14) — 4-fold higher, 0.16 µM
- CC[C@H](C)[C@@H]1NC(=O)[C@H](Cc2ccc(-c3ccccc3)cc2)NC(=O)[C@H](C(C)C)NC(=O)[C@H](Cc2c[nH]c3ccccc23)NC(=O)[C@H](CC(=O)O)NC(=O)[C@H](Cc2ccc(O)cc2)NC(=O)[C@H](Cc2ccccc2)NC(=O)CSC[C@@H](C(=O)N[C@@H](C)C(N)=O)NC(=O)[C@H]([C@@H](C)O)NC(=O)[C@H](C(C)C)NC(=O)[C@H](CC(C)C)NC(=O)[C@H](CCCNC(=N)N)NC(=O)[C@@H](CC(C)C)NC(=O)[C@H](C)N(C)C1=O [Compound 1491] ({CH2CO}-FYDWV[Bip]I[NMeA][dL]RLVTCA-NH2; thioether N-14) — 2.2-fold higher, 0.09 µM
- CC(C)C[C@@H]1NC(=O)[C@H](CCCNC(=N)N)NC(=O)[C@@H](CC(C)C)NC(=O)[C@H](C)N(C)C(=O)[C@H](CCCNC(=N)N)NC(=O)[C@H](Cc2ccc(-c3ccccc3)cc2)NC(=O)[C@H](C(C)C)NC(=O)[C@H](Cc2cccc(C#N)c2)NC(=O)[C@H](CC(=O)O)NC(=O)[C@H](Cc2ccc(O)cc2)NC(=O)[C@H](CC(N)=O)NC(=O)CSC[C@@H](C(=O)N[C@@H](C)C(N)=O)NC(=O)[C@H]([C@@H](C)O)NC(=O)[C@H](C(C)C)NC1=O [Compound 1196] ({CH2CO}-NYD[Phe(3-CN)]V[Bip]R[NMeA][dL]RLVTCA-NH2; thioether N-14) — 6-fold higher, 0.24 µM
- Cc1cccc(C[C@@H]2NC(=O)[C@H](CC(=O)O)NC(=O)[C@H](Cc3ccc(OCC(=O)O)cc3)NC(=O)[C@H](C(C)O)NC(=O)CSC[C@@H](C(=O)N[C@@H](CCN)C(N)=O)NC(=O)[C@H](CO)NC(=O)[C@H](C(C)(C)O)NC(=O)[C@H](CC3CCCCC3)NC(=O)[C@H](CCN)NC(=O)[C@@H](CC(C)C)NC(=O)[C@H](C)N(C)C(=O)[C@H](Cc3ccc(OCC(=O)O)cc3)NC(=O)[C@H](Cc3ccc(-c4ccccc4)cc3)NC(=O)[C@H](Cc3ccc(OCC(=O)O)cc3)NC2=O)c1 (stereo partly drawn) [Compound 2149] ({CH2CO}-[Thr(3ξ)]Y(Carboxymethyl)D[Phe(3-Me)]Y(Carboxymethyl)[Bip]Y(Carboxymethyl)[NMeA][dL][Dab][Cha][Val(3-OH)]SC[Dab]-NH2; thioether N-14) — 2-fold lower, 0.02 µM
- Cc1cccc(C[C@@H]2NC(=O)[C@H](CC(=O)O)NC(=O)[C@H](Cc3ccc(C(=O)O)cc3)NC(=O)[C@H](Cc3ccncc3)NC(=O)CSC[C@@H](C(=O)N[C@@H](CO)C(N)=O)NC(=O)[C@H](CCC(=O)O)NC(=O)[C@H](C(C)(C)O)NC(=O)[C@H](CC3CCCCC3)NC(=O)[C@H](CCN)NC(=O)[C@@H](CC(C)C)NC(=O)[C@H](C)N(C)C(=O)[C@H](Cc3ccc(OCC(=O)O)cc3)NC(=O)[C@H](Cc3ccc(-c4ccccc4)cc3)NC(=O)[C@H](Cc3ccc(OCC(=O)O)cc3)NC2=O)c1 [Compound 2194] ({CH2CO}-[4Pal][Phe(4-COOH)]D[Phe(3-Me)]Y(Carboxymethyl)[Bip]Y(Carboxymethyl)[NMeA][dL][Dab][Cha][Val(3-OH)]ECS-NH2; thioether N-14) — 6.5-fold higher, 0.26 µM
- CC(C)C[C@@H]1NC(=O)[C@H](CCN)NC(=O)[C@@H](CC(C)C)NC(=O)[C@H](C)N(C)C(=O)[C@H](Cc2cnc[nH]2)NC(=O)[C@H](Cc2ccc(-c3ccccc3)cc2)NC(=O)[C@H](C(C)C)NC(=O)[C@H](Cc2c[nH]c3ccccc23)NC(=O)[C@H](CC(=O)O)NC(=O)[C@H](Cc2ccc(O)cc2)NC(=O)[C@H](CN)NC(=O)CSC[C@@H](C(=O)N[C@@H](C)C(N)=O)NC(=O)[C@H]([C@@H](C)O)NC(=O)[C@H](C(C)C)NC1=O [Compound 1424] ({CH2CO}-[Dap]YDWV[Bip]H[NMeA][dL][Dab]LVTCA-NH2; thioether N-14) — within 1.5-fold, 0.05 µM
- CC(C)C[C@@H]1NC(=O)[C@H](CCCNC(=N)N)NC(=O)[C@@H](CC(C)C)NC(=O)[C@H](C)N(C)C(=O)[C@H](CCCNC(=N)N)NC(=O)[C@H](Cc2ccc(-c3ccccc3)cc2)NC(=O)[C@H](C(C)C)NC(=O)[C@H](Cc2c[nH]c3ccccc23)NC(=O)[C@H](CC(=O)O)NC(=O)[C@H](Cc2ccc(CN)cc2)NC(=O)[C@H](Cc2ccccc2)NC(=O)CSC[C@@H](C(=O)N[C@@H](C)C(N)=O)NC(=O)[C@H]([C@@H](C)O)NC(=O)[C@H](C(C)C)NC1=O [Compound 1083] ({CH2CO}-F[Phe(4-CH2NH2)]DWV[Bip]R[NMeA][dL]RLVTCA-NH2; thioether N-14) — 6.2-fold higher, 0.25 µM
- CC(C)C[C@@H]1NC(=O)[C@H](Cc2c[nH]c3ccccc23)NC(=O)[C@H](CC(=O)O)NC(=O)[C@H](Cc2ccc(C(=O)O)cc2)NC(=O)[C@H](Cc2ccc(OCC(=O)O)cc2)NC(=O)CSC[C@@H](C(=O)N[C@H](C)C(N)=O)NC(=O)[C@H](CCC(=O)O)NC(=O)[C@H](C(C)(C)O)NC(=O)[C@H](CC2CCCCC2)NC(=O)[C@H](CCN)NC(=O)[C@@H](CC(C)C)NC(=O)[C@H](C)N(C)C(=O)[C@H](C(C)(C)O)NC(=O)[C@H](Cc2ccc(-c3ccccc3)cc2)NC1=O [Compound 1715] ({CH2CO}-Y(Carboxymethyl)[Phe(4-COOH)]DWL[Bip][Val(3-OH)][NMeA][dL][Dab][Cha][Val(3-OH)]EC[dA]-NH2; thioether N-14) — 1.5-fold higher, 0.06 µM
- CNC[C@@H]1NC(=O)CSC[C@@H](C(=O)N[C@@H](C)C(N)=O)NC(=O)[C@H](C(C)O)NC(=O)[C@H](C(C)C)NC(=O)[C@H](CC(C)C)NC(=O)[C@H](CCN)NC(=O)[C@@H](CC(C)C)NC(=O)[C@H](C)N(C)C(=O)[C@H](C(C)C)NC(=O)[C@H](Cc2ccc(-c3ccccc3)cc2)NC(=O)[C@H](C(C)C)NC(=O)[C@H](Cc2c[nH]c3ccccc23)NC(=O)[C@H](CC(=O)O)NC(=O)[C@H](Cc2ccc(O)cc2)NC1=O (stereo partly drawn) [Compound 2041] ({CH2CO}-[Dap(Me)]YDWV[Bip]V[NMeA][dL][Dab]LV[Thr(3ξ)]CA-NH2; thioether N-14) — 2-fold lower, 0.02 µM
- COc1ccc(C[C@@H]2NC(=O)[C@H](Cc3ccccc3)NC(=O)CSC[C@@H](C(=O)N[C@@H](C)C(N)=O)NC(=O)[C@H]([C@@H](C)O)NC(=O)[C@H](C(C)C)NC(=O)[C@H](CC(C)C)NC(=O)[C@H](CCCNC(=N)N)NC(=O)[C@@H](CC(C)C)NC(=O)[C@H](C)N(C)C(=O)[C@H](CCCNC(=N)N)NC(=O)[C@H](Cc3ccc(-c4ccccc4)cc3)NC(=O)[C@H](C(C)C)NC(=O)[C@H](Cc3c[nH]c4ccccc34)NC(=O)[C@H](CC(=O)O)NC2=O)cc1 [Compound 1091] ({CH2CO}-FY(Me)DWV[Bip]R[NMeA][dL]RLVTCA-NH2; thioether N-14) — 2.2-fold higher, 0.09 µM
- CC(C)C[C@@H]1NC(=O)[C@H](CCCNC(=N)N)NC(=O)[C@@H](Cc2csc3ccccc23)NC(=O)[C@H](C)N(C)C(=O)[C@H](CCCNC(=N)N)NC(=O)[C@H](Cc2ccc(-c3ccccc3)cc2)NC(=O)[C@H](C(C)C)NC(=O)[C@H](Cc2c[nH]c3ccccc23)NC(=O)[C@H](CC(=O)O)NC(=O)[C@H](Cc2ccc(O)cc2)NC(=O)[C@H](CC(N)=O)NC(=O)CSC[C@@H](C(=O)N[C@@H](C)C(N)=O)NC(=O)[C@H]([C@@H](C)O)NC(=O)[C@H](C(C)C)NC1=O [Compound 1181] ({CH2CO}-NYDWV[Bip]R[NMeA][dBta]RLVTCA-NH2; thioether N-14) — 8.5-fold higher, 0.34 µM
- COc1cccc(C[C@@H]2NC(=O)[C@H](CC(=O)O)NC(=O)[C@H](Cc3ccc(C(=O)O)cc3)NC(=O)[C@H](CN)NC(=O)CSC[C@@H](C(=O)N[C@@H](C)C(N)=O)NC(=O)[C@H]([C@@H](C)O)NC(=O)[C@H](C(C)C)NC(=O)[C@H](CC(C)C)NC(=O)[C@H](CCN)NC(=O)[C@@H](CC(C)C)NC(=O)[C@H](C)N(C)C(=O)[C@H](CCCNC(=N)N)NC(=O)[C@H](Cc3ccc(-c4ccccc4)cc3)NC(=O)[C@H](C(C)C)NC2=O)c1 [Compound 1460] ({CH2CO}-[Dap][Phe(4-COOH)]D[Phe(3-OMe)]V[Bip]R[NMeA][dL][Dab]LVTCA-NH2; thioether N-14) — 2-fold lower, 0.02 µM
